{"source": "patent US20260015436A1", "about": "“ANTIBODIES FOR CHELATED RADIONUCLIDES” (Hoffmann-La Roche Inc., priority 2018, published 2026)", "key": {"LS174T tumors": {"system": "LS174T tumors", "experiment": "Protocol 93b: efficacy and biodistribution of CEA-PRIT, LS174T model", "assay_type": "in vivo, mice", "conditions": "day 22; 30+30 μCi", "protocol": "The bispecific antibodies were compared side-by-side in single- and double-cycle treatment regimens.\nGroups A-G represent the treated mice that were followed up for assessment of efficacy, whereas groups H-L comprise mice that were sacrificed for biodistribution purposes 24 h after their last ^212Pb-DOTAM injection.\nFor protocol 93b, mice (age 9 weeks) were injected s.c. into the right flank with 1×10^6 LS174T cells (passage 26) in 100 μL DMEM/Matrigel. Three days after tumor cell injection, mice were sorted into experimental groups with an average tumor volume of 150 mm^3.\nTo minimize re-ingestion of radioactive urine/feces after treatment cycle 1, cages were changed 4 hours after ^212Pb-DOTAM administration, and then again at 24 h p.i. […]\nThe tumor development in the mice was followed through repeated calipering three times a week. […] The body weight of the animals was measured repeatedly in the same fashion. […]\nMice in groups H, J, and L were sacrificed and necropsied 24 hours after their first and only injection of ^212Pb-DOTAM; groups I and K were sacrificed and necropsied 24 hours after their second ^212Pb-DOTAM injection. […] Collected samples were weighed and measured for radioactivity, and the percent injected dose per gram of tissue (% ID/g) subsequently calculated, including corrections for decay and background."}, "BxPC3 tumors": {"system": "BxPC3 tumors", "experiment": "Protocol 103: efficacy of CEA-PRIT, s.c. BxPC3 tumors", "assay_type": "in vivo, SCID mice", "conditions": "result in words", "protocol": "Step 1: Administration of a BsAb (i.v. or i.p.): The BsAb used in the studies binds Pb-DOTAM with high affinity and targets the tumor e.g. via CEA.\nStep 2: Administration of CA (i.v. or i.p.): To allow efficient tumor accumulation of ^212Pb-DOTAM, circulating BsAb needs to be neutralized in the blood using a CA that blocks ^212Pb-DOTAM binding to unbound BsAb, without penetrating into the tumor and consequently blocking the pretargeted sites. The CA is administered once the BsAb has accumulated to a sufficient degree in the tumor, generally after 4-10 days. […]\nThe body weight (BW) of the study animals was measured at least 3 times per week, with additional measurements as needed depending on the health status. […]\nwhere d indicates treatment day and 0 the baseline value. […] Tumor regression (TR) was calculated according to: […]\nThis study assessed the efficacy of CEA-PRIT using the CEA-DOTAM BsAb for treatment of s.c. BxPC3 tumors in mice. The therapy was administered either as a single treatment with 10 or 30 μCi of ^212Pb-DOTAM, or in three repeated cycles for each of the two radioactivity levels. […] Biodistributions were performed after the first and second cycle to confirm ^212Pb-DOTAM targeting and clearance, and the treatment efficacy was assessed in terms of TGI, TR, and survival. […]"}}}
{"molecule": "NC(=O)CN1CCN(CC(N)=O)CCN(CC(N)=O)CCN(CC(N)=O)CC1.[212Pb+2]", "note": "[^212Pb-DOTAM]", "values": [{"measurement": "TGI compared with PBS", "setting": "LS174T tumors", "value": 64.7, "unit": "%"}, {"measurement": "radiation-induced toxicity / tolerability", "setting": "BxPC3 tumors; 10 μCi", "value": "safe radioactivity level"}, {"measurement": "radiation-induced toxicity / tolerability", "setting": "BxPC3 tumors; 30 μCi", "value": "approaching the maximum tolerated activity"}]}
